PubChem BioAssay AID248 (DTP/NCI, 2004)
“And” between values parts separate entries of the source, which are not always exact repeats. Identical values can stand only once. Toxic doses and inconclusive results are not listed. No stated cut-off is given here; in the data, active means T/C of 150% or more; inactive means T/C below 125%.

System: L1210 leukemia ip in BDF1 mice, survival T/C
Experiment: NCI In Vivo Anticancer Drug Screen. Data for tumor model L1210 Leukemia (intraperitoneal) in B6D2F1 (BDF1) mice
Conditions: endpoint: mean survival time, higher = longer survival
Summary of the method: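 Mice bearing the transplanted tumor received compound or vehicle. Survival of the treated group was divided by that of the vehicle-treated control group to give the ratio.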

[1] = dose: 100.0 mg/kg/injection, schedule: Q01DX001 (ip), vehicle: saline
[2] = dose: 75.0 mg/kg/injection, schedule: Q01DX001 (ip), vehicle: other
[3] = dose: 100.0 mg/kg/injection, schedule: Q04DX003 (ip), vehicle: saline
[4] = dose: 200.0 mg/kg/injection, schedule: Q04DX003 (ip), vehicle: saline
[5] = dose: 100.0 mg/kg/injection, schedule: Q01DX009 (ip), vehicle: Klucel (hydroxypropylcellulose) (HPC)
[6] = dose: 100.0 mg/kg/injection, schedule: Q04DX003 (ip), vehicle: Klucel (hydroxypropylcellulose) (HPC)
[7] = dose: 200.0 mg/kg/injection, schedule: Q01DX009 (ip), vehicle: Klucel (hydroxypropylcellulose) (HPC)
[8] = dose: 200.0 mg/kg/injection, schedule: Q04DX003 (ip), vehicle: Klucel (hydroxypropylcellulose) (HPC)
[9] = dose: 100.0 mg/kg/injection, schedule: Q01DX009 (ip), vehicle: acetone
[10] = dose: 100.0 mg/kg/injection, schedule: Q04DX003 (ip), vehicle: acetone
[11] = dose: 200.0 mg/kg/injection, schedule: Q01DX009 (ip), vehicle: acetone
[12] = dose: 200.0 mg/kg/injection, schedule: Q04DX003 (ip), vehicle: acetone
[13] = dose: 400.0 mg/kg/injection, schedule: Q04DX003 (ip), vehicle: acetone

Measured: T/C

CCOC(O)(C(F)(F)F)C(F)(F)F
inactive: dose: 12.5 mg/kg/injection, schedule: Q01DX009 (ip), vehicle: saline with Tween-80 96 % of control | dose: 12.5 mg/kg/injection, schedule: Q04DX003 (ip), vehicle: saline with Tween-80 95 % of control | dose: 25.0 mg/kg/injection, schedule: Q01DX009 (ip), vehicle: saline with Tween-80 105 % of control | dose: 50.0 mg/kg/injection, schedule: Q04DX003 (ip), vehicle: saline with Tween-80 97 % of control | [1] 98 % of control

CN(C)c1ccnc(SCc2ccc(Cl)cc2Cl)n1
inactive: dose: 25.0 mg/kg/injection, schedule: Q01DX Z (ip), vehicle: methylcellulose (MC) 92 % of control | dose: 50.0 mg/kg/injection, schedule: Q01DX Z (ip), vehicle: methylcellulose (MC) 94 % of control

CCOC(=O)C(C#N)=C(C)C
inactive: [2] 103 % of control | [1] 97 % of control | [3] 97 % of control | [4] 94 % of control

O=C(NC(=O)C(Cl)Cl)OC1c2cc(Cl)ccc2-c2c(Cl)cc(Cl)cc21 (centres undefined)
inactive: dose: 100.0 mg/kg/injection, schedule: Q01DX001 (ip), vehicle: Klucel (hydroxypropylcellulose) (HPC) 90 % of control | [5] 95 % of control | [6] 91 % of control | dose: 200.0 mg/kg/injection, schedule: Q01DX001 (ip), vehicle: Klucel (hydroxypropylcellulose) (HPC) 98 % of control | [7] 89 % of control | [8] 91 % of control | dose: 400.0 mg/kg/injection, schedule: Q01DX001 (ip), vehicle: Klucel (hydroxypropylcellulose) (HPC) 88 % of control | dose: 400.0 mg/kg/injection, schedule: Q04DX003 (ip), vehicle: Klucel (hydroxypropylcellulose) (HPC) 88 % of control

CC1OCC(C)C(C)(C)O1 (centres undefined)
inactive: dose: 50.0 mg/kg/injection, schedule: Q01DX009 (ip), vehicle: acetone 100 % of control | [9] 90 % of control | [10] 112 % of control | [11] 89 % of control | [12] 108 % of control | [13] 103 % of control

O=C(Nc1ccc(F)cc1)NN1CCOCC1
inactive: dose: 50.0 mg/kg/injection, schedule: Q01DX009 (ip), vehicle: Klucel (hydroxypropylcellulose) (HPC) 104 % of control | [5] 90 % of control | [7] 97 % of control

Cc1ccc(S(=O)(=O)c2ccccc2C)s1
inactive: [1] 97 % of control | [10] 94 % of control | dose: 200.0 mg/kg/injection, schedule: Q01DX001 (ip), vehicle: saline 98 % of control | [12] 98 % of control | dose: 400.0 mg/kg/injection, schedule: Q01DX001 (ip), vehicle: saline 93 % of control | [13] 94 % of control

COc1n[nH]c(N)n1
inactive: dose: 100.0 mg/kg/injection, schedule: Q04DX002 (ip), vehicle: saline with Tween-80 122 % of control | dose: 200.0 mg/kg/injection, schedule: Q04DX002 (ip), vehicle: saline with Tween-80 98 % of control | dose: 400.0 mg/kg/injection, schedule: Q04DX002 (ip), vehicle: saline with Tween-80 105 % of control

CC(=O)OC(C(C)=O)C(C)=O.CC(=O)OC(C(C)=O)C(C)=O.[Cu]
inactive: dose: 12.0 mg/kg/injection, schedule: Q01DX001 (ip), vehicle: saline 93 % of control | dose: 12.0 mg/kg/injection, schedule: Q04DX003 (ip), vehicle: saline 96 % of control | dose: 25.0 mg/kg/injection, schedule: Q01DX001 (ip), vehicle: saline 95 % of control | dose: 25.0 mg/kg/injection, schedule: Q04DX003 (ip), vehicle: saline 96 % of control | dose: 50.0 mg/kg/injection, schedule: Q01DX001 (ip), vehicle: saline 101 % of control | dose: 50.0 mg/kg/injection, schedule: Q04DX003 (ip), vehicle: saline 103 % of control

CC(C)c1ccc(/C(=N\N=C(N)N)C2CC2)cc1
inactive: dose: 15.0 mg/kg/injection, schedule: Q01DX Z (ip), vehicle: carboxymethylcellulose (CMC) 93 % of control | dose: 30.0 mg/kg/injection, schedule: Q01DX Z (ip), vehicle: carboxymethylcellulose (CMC) 95 % of control | dose: 60.0 mg/kg/injection, schedule: Q01DX Z (ip), vehicle: carboxymethylcellulose (CMC) 92 % of control and 93 % of control | dose: 120.0 mg/kg/injection, schedule: Q01DX Z (ip), vehicle: carboxymethylcellulose (CMC) 95 % of control and 96 % of control | dose: 120.0 mg/kg/injection, schedule: Q01DX Z (oral), vehicle: carboxymethylcellulose (CMC) 101 % of control | dose: 240.0 mg/kg/injection, schedule: Q01DX Z (ip), vehicle: carboxymethylcellulose (CMC) 93 % of control | dose: 240.0 mg/kg/injection, schedule: Q01DX Z (oral), vehicle: carboxymethylcellulose (CMC) 110 % of control | dose: 480.0 mg/kg/injection, schedule: Q01DX Z (oral), vehicle: carboxymethylcellulose (CMC) 102 % of control | dose: 960.0 mg/kg/injection, schedule: Q01DX Z (oral), vehicle: carboxymethylcellulose (CMC) 102 % of control

C=C(C)C1CC(=O)C2(C)OC2C1 (centres undefined)
inactive: [2] 102 % of control | dose: 150.0 mg/kg/injection, schedule: Q01DX001 (ip), vehicle: other 98 % of control | dose: 300.0 mg/kg/injection, schedule: Q01DX001 (ip), vehicle: other 94 % of control

NC(=O)COc1ccccc1Cl
inactive: dose: 50.0 mg/kg/injection, schedule: Q04DX003 (ip), vehicle: Klucel (hydroxypropylcellulose) (HPC) 102 % of control | [6] 94 % of control | [8] 93 % of control

CC(=O)Nc1ccc(Br)cc1[N+](=O)[O-]
inactive: [9] 92 % of control | [11] 106 % of control | dose: 400.0 mg/kg/injection, schedule: Q01DX009 (ip), vehicle: acetone 101 % of control

ClC(c1ccccc1)(c1ccccc1)c1ccccc1
inactive: dose: 50.0 mg/kg/injection, schedule: Q01DX001 (ip), vehicle: other 96 % of control | dose: 100.0 mg/kg/injection, schedule: Q01DX001 (ip), vehicle: other 102 % of control | dose: 100.0 mg/kg/injection, schedule: Q01DX009 (ip), vehicle: saline 87 % of control | [3] 90 % of control | dose: 200.0 mg/kg/injection, schedule: Q01DX001 (ip), vehicle: other 106 % of control | dose: 200.0 mg/kg/injection, schedule: Q01DX009 (ip), vehicle: saline 94 % of control | [4] 93 % of control | dose: 400.0 mg/kg/injection, schedule: Q01DX001 (ip), vehicle: other 100 % of control | dose: 400.0 mg/kg/injection, schedule: Q01DX009 (ip), vehicle: saline 90 % of control | dose: 400.0 mg/kg/injection, schedule: Q04DX003 (ip), vehicle: saline 88 % of control

C=CCOc1cc2c(ccc1=O)-c1c(cc(OC)c(OC)c1OC)CCC2NC(C)=O (centres undefined)
inactive: dose: 100.0 mg/kg/injection, schedule: Q01DX001 (ip), vehicle: carboxymethylcellulose (CMC) 104 % of control | dose: 200.0 mg/kg/injection, schedule: Q01DX001 (ip), vehicle: carboxymethylcellulose (CMC) 106 % of control | dose: 400.0 mg/kg/injection, schedule: Q01DX001 (ip), vehicle: carboxymethylcellulose (CMC) 104 % of control
